What was measured:
[1] = tested on: Experimental Autoimmune Encephalomyelitis; details: various animal species; cited from earlier work
multiple sclerosis = details: cited from earlier work
[2] = tested on: LNCs extracted from mice immunized with Poly-YAK (YB106); assay: Ex-vivo potency assay: immunization with Poly-YAK (YB106), in-vitro stimulation of LNCs, IL-2 ELISA; type: cell-based, mouse; details: specificity samples as in-vitro stimulators
Description: The present inventors developed an ex-vivo biological potency assay to determine the relative potency of GA based on effecting the first stimulus by immunizing mice in-vivo with Poly-YAK (also referred to as activation), and the second stimulus by in-vitro stimulation (also referred to as stimulation) with GA. The assay is composed of 6 major steps depicted in FIG. 1.
Briefly, mice are immunized with a pre-determined amount of Poly-YAK (YB106), mixed 1:1 with CFA (step 1). Eight to ten days later, the mice are sacrificed and draining lymph nodes are harvested. Lymph node cells (LNCs) are extracted from the lymph nodes and counted (step 2). […] The Level of IL-2 secretion from the cells into the culture media is determined by a commercial IL-2 ELISA (step 4).
In order to determine the relative potency of a tested batch, IL-2 secretion by the LNCs incubated with the tested batch samples is compared to the IL-2 secretion by the LNCs incubated with RS samples (step 5). Parallelism of the RS and tested batch curves and potency of the tested batch are determined accordingly (step 6). […]
Lymph node cells (LNCs) extraction—The primary culture of LNCs was prepared 8 to 10 days following immunization. […] The cells were then collected in 10-20 ml RPMI or AIM-V complete medium and counted by hemocytometer using Erythrosine B (Sigma, cat no. E9259). […]

Substance | suppression of EAE [1] | total number of enhancing lesions as measured by MRI (multiple sclerosis; MS patients, 20 mg/day subcutaneous dose) | frequency of relapses (multiple sclerosis; relapsing-remitting MS clinical trials) | IL-2 secretion response pattern in comparison to RS [2]
L-glutamic acid polymer with L-alanine, L-lysine and L-tyrosine, acetate (salt) [GA] | suppress Experimental Autoimmune Encephalomyelitis | reduce the total number of enhancing lesions | reduce the frequency of relapses | –
MBP peptide (87-99): Myelin Basic Protein peptide 87-99 (BACHEM H-1964), negative control (SRPHLIRLFSRDA; UniProt P02686 87-99, looked up, fragment) | – | – | – | did not induce IL-2 secretion response

Reference: US20190025285A1, “METHODS OF DETERMINING RELATIVE POTENCY OF GLATIRAMER ACETATE AND USE THEREOF IN PREPARING A BATCH OF GLATIRAMER ACETATE AS ACCEPTABLE FOR PHARMACEUTICAL USE” (InSight Biopharmaceutical Ltd., priority 2015, published 2019)
